Experimental data published in patent US6506339B1, “Method of sterilization” (Biomedical Design, Inc., priority 1997, dated 2003).

Assays:
[1] = system: Bacillus subtilis (niger) spores; experiment: Sterilization without isopropyl alcohol with porcine aortic root tissue (Example 4C); type: cell-based; details: 40° C., 1.5×10^6 spores with root tissue, no isopropyl alcohol
Protocol: An experiment similar to that of Example 4A is carried out using slightly higher concentrations of EDC and including porcine aortic root tissue. Bacillus subtilis (niger) spores at levels of 1.5×10^6 are inoculated for approximately 10 minutes in sterile cups each containing root tissue. Solutions (50 ml) of 50, 75 and 100 mM EDC in 10 mM TRIS, 0.85% NaCl, pH 6.5 are prewarmed to 40° C. and then rapidly added to the tissues in the cups. The cups containing the tissue are incubated at 40° C. for 6, 9, 12, 24 and 48 hours; then, the solutions are diluted and filtered in order to collect microorganisms. The valve tissue is washed for 20 minutes in a reciprocating shaker in the presence of peptone water containing Tween 80 in order to extract all spores of microorganisms from the tissue. The solutions from the shakers are filtered through the respective filters to which the original solutions were applied. The filters are rinsed with a 0.1% peptone water solution and incubated on TSA plates for up to 14 days. The plates are examined daily for growth.

[2] = system: spores of Bacillus subtilis; experiment: Two sequential spore inoculations on cross-linked porcine valves (Example 5); type: cell-based; details: 25 mM EDC, 20% isopropyl alcohol, 40° C.
Protocol: An experiment was also designed to test the bactericidal activity of the EDC treatment using two sequential inoculations of at least 1×10^6 spores of Bacillus subtilis per sample. In the first step, 1.43×10^6 spores (Log10=6.2) were inoculated in triplicate for 10 minutes onto 45 porcine valves which had been cross-linked using a method as described in the above-mentioned patent and patent application. Solutions of 25 mM EDC in 10 mM HEPES, 0.85% NaCl, 20% isopropyl alcohol, at pH 6.5 were poured into the cups containing the valve samples. After 2, 4, 6, and 8 hours of incubation at 40° C., the total surviving spores from 12 samples (solution plus tissue) were counted. After 8 hours of incubation, an additional 1.2×10^6 (Log10=6.1) spores were added to the remaining 33 samples. Summarizing, these remaining 33 samples were thus inoculated at t=0 with 1.43×10^6 spores and at t=8 with 1.2×10^6 spores. After various durations of incubation (see Table C for details), the surviving spores in solution and on the valve tissue were removed by filtering and incubated on TSA plates as described above. The positive and negative controls were determined to be valid for the test.

[3] = 28 to 56 hours, rechallenge with 1.2×10^6 spores at 8 hours, mean of three samples
[4] = 2 hours, inoculum 1.43×10^6, mean of three samples
[5] = 4 hours, inoculum 1.43×10^6, mean of three samples
[6] = 6 hours, inoculum 1.43×10^6, mean of three samples
[7] = 8 hours, inoculum 1.43×10^6, mean of three samples
[8] = 11 hours, rechallenge with 1.2×10^6 spores at 8 hours, mean of three samples
[9] = 14 hours, rechallenge with 1.2×10^6 spores at 8 hours, mean of three samples
[10] = 20 hours, rechallenge with 1.2×10^6 spores at 8 hours, mean of three samples
[11] = 24 hours, rechallenge with 1.2×10^6 spores at 8 hours, mean of three samples

`CCN=C=NCCCN(C)C.Cl` [EDC, 1-ethyl-3(3-dimethylaminopropyl)carbodiimide hydrochloride] was tested, and the inactivation of spores ([1]; 50 mM EDC, 6 hours) was “only partial kill”, the inactivation of spores ([1]; 50 mM EDC, 9 hours) was “complete inactivation of the spores” and the inactivation of spores ([1]; 75 mM EDC, 6 hours) was “effectively inactivates these spores”. The inactivation of spores ([1]; 75 mM EDC, 9 hours) was “complete inactivation of the spores”, the inactivation of spores ([1]; 100 mM EDC, 6 hours) was “effectively inactivates these spores” and the inactivation of spores ([1]; 100 mM EDC, 9 hours) was “complete inactivation of the spores”. For the same compound, the “LOG REDUCTION” value [2, 3] was 6.1, the “Total Survivors # CFUs” value [2, 3] was 0 CFUs and the “Total Survivors Log 10” value [2, 3] was 0 Log 10. For the same compound, the “LOG REDUCTION” value [2, 4] was 4.5, the “Total Survivors # CFUs” value [2, 4] was 58 CFUs and the “Total Survivors Log 10” value [2, 4] was 1.7 Log 10. For the same compound, the “LOG REDUCTION” value [2, 5] was 5.6, the “Total Survivors # CFUs” value [2, 5] was 4 CFUs and the “Total Survivors Log 10” value [2, 5] was 0.5 Log 10. For the same compound, the “LOG REDUCTION” value [2, 6] was 6.2, the “Total Survivors # CFUs” value [2, 6] was 0 CFUs and the “Total Survivors Log 10” value [2, 6] was 0 Log 10. For the same compound, the “LOG REDUCTION” value [2, 7] was 6.2, the “Total Survivors # CFUs” value [2, 7] was 0 CFUs and the “Total Survivors Log 10” value [2, 7] was 0 Log 10. The “LOG REDUCTION” value [2, 8] was 3.7, the “Total Survivors # CFUs” value [2, 8] was 300 CFUs and the “Total Survivors Log 10” value [2, 8] was 2.5 Log 10. The “LOG REDUCTION” value [2, 9] was 6.1, the “Total Survivors # CFUs” value [2, 9] was 0 CFUs and the “Total Survivors Log 10” value [2, 9] was 0 Log 10. For the same compound, the “LOG REDUCTION” value [2, 10] was 6.1, the “Total Survivors # CFUs” value [2, 10] was 0 CFUs and the “Total Survivors Log 10” value [2, 10] was 0 Log 10. For the same compound, the “LOG REDUCTION” value [2, 11] was 6.1, the “Total Survivors # CFUs” value [2, 11] was 0 CFUs and the “Total Survivors Log 10” value [2, 11] was 0 Log 10.
